Experimental data as given in PMC8753592, “Long-acting capsid inhibitor protects macaques from repeat SHIV challenges” (Nature, 2021).
“And” between values parts separate entries of the source, which are not always exact repeats. Identical values can stand only once.

Test: Pilot pharmacokinetic study, single subcutaneous administration
Protocol: All study protocols were reviewed and approved by the Covance Laboratories Institutional Animal Care and Use Committee (IACUC).
Rhesus plasma samples were stored frozen at −80 °C. For analysis, the samples were thawed, and a 50-µl aliquot of each sample was treated with 200 µl acetonitrile containing a generic internal small-molecule standard. After precipitation of the protein component, a 100-µl aliquot of the supernatant was transferred to a clean 96-well plate and was mixed with 200 µl water. A 20-μl aliquot of the above solution was then injected into a Q-Exactive high-resolution mass spectrometer (Thermo Scientific) with electrospray ionization in positive mode. Quantification was performed with a Thermo Scientific Xcalibur 4.0.27.19 using accurate masses (<5 parts per million mass error; [M + H]^+ of 958.1853 for GC-CA1 and 758.3270 for the internal standard, respectively)[22],[23]. […] Pharmacokinetic parameters, including the area under the plasma concentration–time curve from time 0 to the last quantifiable time point (AUClast), the area under the plasma concentration–time curve from time 0 to infinity (AUCinf), the maximum concentration (Cmax), the time to reach the observed peak plasma concentration (tmax) and the terminal half-life (t1/2), were determined by non-compartmental analysis using Phoenix WinNonlin 6.4 build 8.1.0.3530 software (Pharsight).

[1] = male, Indian origin, rhesus monkey, in vivo, sc, 100 mg/kg
[2] = male, Indian origin, rhesus monkey, in vivo, sc, 300 mg/kg

SMILES: CC(C)(C#Cc1ccc(-c2ccc(Cl)c3c(NS(=O)(=O)C4CC4)nn(CC(F)F)c23)c([C@H](Cc2cc(F)cc(F)c2)NC(=O)Cn2nc(C(F)F)c3c2C(F)(F)[C@@H]2C[C@H]32)n1)S(C)(=O)=O [GS-CA1]
- Plasma GS-CA1 level (100 mg/kg s.c., 0.006 weeks post dose, individual animals, unit not given (Fig. 1b in nM)): 41.2 and 93.2
- Plasma GS-CA1 level (100 mg/kg s.c., 0.018 weeks post dose, individual animals, unit not given): 240
- Plasma GS-CA1 level (100 mg/kg s.c., 0.047 weeks post dose, individual animals, unit not given): 588
- Plasma GS-CA1 level (100 mg/kg s.c., 0.14 weeks post dose, individual animals, unit not given): 2054
- Plasma GS-CA1 level (100 mg/kg s.c., 0.29 weeks post dose, individual animals, unit not given): 2247
- Plasma GS-CA1 level (100 mg/kg s.c., 0.43 weeks post dose, individual animals, unit not given): 1217
- Plasma GS-CA1 level (100 mg/kg s.c., 0.57 weeks post dose, individual animals, unit not given): 649
- Plasma GS-CA1 level (100 mg/kg s.c., 1 week post dose, individual animals, unit not given): 448
- Plasma GS-CA1 level (100 mg/kg s.c., 2 weeks post dose, individual animals, unit not given): 254
- Plasma GS-CA1 level (100 mg/kg s.c., 3 weeks post dose, individual animals, unit not given): 125
- Plasma GS-CA1 level (100 mg/kg s.c., 4 weeks post dose, individual animals, unit not given): 115
- Plasma GS-CA1 level (100 mg/kg s.c., 5 weeks post dose, individual animals, unit not given): 92.7
- Plasma GS-CA1 level (100 mg/kg s.c., 6 weeks post dose, individual animals, unit not given): 65.1
- Plasma GS-CA1 level (100 mg/kg s.c., 8 weeks post dose, individual animals, unit not given): 43.2
- Plasma GS-CA1 level (100 mg/kg s.c., 10 weeks post dose, individual animals, unit not given): 23.6
- Plasma GS-CA1 level (100 mg/kg s.c., 12 weeks post dose, individual animals, unit not given): 11.5
- Plasma GS-CA1 level (100 mg/kg s.c., 14 weeks post dose, individual animals, unit not given): 15.5 and 6.3
- Plasma GS-CA1 level (100 mg/kg s.c., 16 weeks post dose, individual animals, unit not given): 10.4 and 5.1
- Plasma GS-CA1 level (100 mg/kg s.c., 18 weeks post dose, individual animals, unit not given): 10.7 and 2.4
- Plasma GS-CA1 level (300 mg/kg s.c., 0.006 weeks post dose, individual animals, unit not given (Fig. 1b in nM)): 74.8 and 53.9
- Plasma GS-CA1 level (300 mg/kg s.c., 0.018 weeks post dose, individual animals, unit not given): 137 and 203 and 314
- Plasma GS-CA1 level (300 mg/kg s.c., 0.047 weeks post dose, individual animals, unit not given): 205 and 325 and 1054
- Plasma GS-CA1 level (300 mg/kg s.c., 0.14 weeks post dose, individual animals, unit not given): 3062 and 1232 and 2737
- Plasma GS-CA1 level (300 mg/kg s.c., 0.29 weeks post dose, individual animals, unit not given): 3422 and 1597 and 1786
- Plasma GS-CA1 level (300 mg/kg s.c., 0.43 weeks post dose, individual animals, unit not given): 1984 and 1345
- Plasma GS-CA1 level (300 mg/kg s.c., 0.57 weeks post dose, individual animals, unit not given): 1342 and 1428
- Plasma GS-CA1 level (300 mg/kg s.c., 1 week post dose, individual animals, unit not given): 938 and 936
- Plasma GS-CA1 level (300 mg/kg s.c., 2 weeks post dose, individual animals, unit not given): 1435 and 680 and 798
- Plasma GS-CA1 level (300 mg/kg s.c., 3 weeks post dose, individual animals, unit not given): 467 and 939 and 816
- Plasma GS-CA1 level (300 mg/kg s.c., 4 weeks post dose, individual animals, unit not given): 461 and 659
- Plasma GS-CA1 level (300 mg/kg s.c., 5 weeks post dose, individual animals, unit not given): 226 and 377 and 512
- Plasma GS-CA1 level (300 mg/kg s.c., 6 weeks post dose, individual animals, unit not given): 291 and 348 and 602
- Plasma GS-CA1 level (300 mg/kg s.c., 8 weeks post dose, individual animals, unit not given): 243 and 396
- Plasma GS-CA1 level (300 mg/kg s.c., 10 weeks post dose, individual animals, unit not given): 116 and 206
- Plasma GS-CA1 level (300 mg/kg s.c., 12 weeks post dose, individual animals, unit not given): 56.5 and 98.6 and 116
- Plasma GS-CA1 level (300 mg/kg s.c., 14 weeks post dose, individual animals, unit not given): 66.9 and 71.3
- Plasma GS-CA1 level (300 mg/kg s.c., 16 weeks post dose, individual animals, unit not given): 19.3 and 37.8 and 64.2
- Plasma GS-CA1 level (300 mg/kg s.c., 18 weeks post dose, individual animals, unit not given): 10 and 26.3 and 22.2
- concentration at 0.018 weeks (male, Indian origin, rhesus monkey, in vivo, 100 mg/kg, Plasma GS-CA1 level, 100 mg/kg s.c., 0.018 weeks post dose, individual animals, unit inferred): 202 nM
- concentration at 0.047 weeks (male, Indian origin, rhesus monkey, in vivo, 100 mg/kg, Plasma GS-CA1 level, 100 mg/kg s.c., 0.047 weeks post dose, individual animals, unit inferred): 436 nM
- concentration at 0.14 weeks (male, Indian origin, rhesus monkey, in vivo, 100 mg/kg, Plasma GS-CA1 level, 100 mg/kg s.c., 0.14 weeks post dose, individual animals, unit inferred): 1210 nM
- concentration at 0.29 weeks (male, Indian origin, rhesus monkey, in vivo, 100 mg/kg, Plasma GS-CA1 level, 100 mg/kg s.c., 0.29 weeks post dose, individual animals, unit inferred): 1160 nM
- concentration at 0.43 weeks (male, Indian origin, rhesus monkey, in vivo, 100 mg/kg, Plasma GS-CA1 level, 100 mg/kg s.c., 0.43 weeks post dose, individual animals, unit inferred): 910 nM
- concentration at 0.57 weeks (male, Indian origin, rhesus monkey, in vivo, 100 mg/kg, Plasma GS-CA1 level, 100 mg/kg s.c., 0.57 weeks post dose, individual animals, unit inferred): 487 nM
- concentration at 1 week (male, Indian origin, rhesus monkey, in vivo, 100 mg/kg, Plasma GS-CA1 level, 100 mg/kg s.c., 1 week post dose, individual animals, unit inferred): 353 nM
- concentration at 2 weeks (male, Indian origin, rhesus monkey, in vivo, 100 mg/kg, Plasma GS-CA1 level, 100 mg/kg s.c., 2 weeks post dose, individual animals, unit inferred): 163 nM
- concentration at 3 weeks (male, Indian origin, rhesus monkey, in vivo, 100 mg/kg, Plasma GS-CA1 level, 100 mg/kg s.c., 3 weeks post dose, individual animals, unit inferred): 114 nM
- concentration at 4 weeks (male, Indian origin, rhesus monkey, in vivo, 100 mg/kg, Plasma GS-CA1 level, 100 mg/kg s.c., 4 weeks post dose, individual animals, unit inferred): 138 nM
- concentration at 5 weeks (male, Indian origin, rhesus monkey, in vivo, 100 mg/kg, Plasma GS-CA1 level, 100 mg/kg s.c., 5 weeks post dose, individual animals, unit inferred): 93.4 nM
- concentration at 6 weeks (male, Indian origin, rhesus monkey, in vivo, 100 mg/kg, Plasma GS-CA1 level, 100 mg/kg s.c., 6 weeks post dose, individual animals, unit inferred): 84.9 nM
- concentration at 8 weeks (male, Indian origin, rhesus monkey, in vivo, 100 mg/kg, Plasma GS-CA1 level, 100 mg/kg s.c., 8 weeks post dose, individual animals, unit inferred): 36.4 nM
- concentration at 10 weeks (male, Indian origin, rhesus monkey, in vivo, 100 mg/kg, Plasma GS-CA1 level, 100 mg/kg s.c., 10 weeks post dose, individual animals, unit inferred): 40.7 nM
- concentration at 12 weeks (male, Indian origin, rhesus monkey, in vivo, 100 mg/kg, Plasma GS-CA1 level, 100 mg/kg s.c., 12 weeks post dose, individual animals, unit inferred): 18 nM
- concentration at 0.006 weeks (male, Indian origin, rhesus monkey, in vivo, 300 mg/kg, Plasma GS-CA1 level, 300 mg/kg s.c., 0.006 weeks post dose, individual animals, unit not given (Fig. 1b in nM)): 68.8 nM
- concentration at 0.43 weeks (male, Indian origin, rhesus monkey, in vivo, 300 mg/kg, Plasma GS-CA1 level, 300 mg/kg s.c., 0.43 weeks post dose, individual animals, unit inferred): 2000 nM
- concentration at 0.57 weeks (male, Indian origin, rhesus monkey, in vivo, 300 mg/kg, Plasma GS-CA1 level, 300 mg/kg s.c., 0.57 weeks post dose, individual animals, unit inferred): 1920 nM
- concentration at 1 week (male, Indian origin, rhesus monkey, in vivo, 300 mg/kg, Plasma GS-CA1 level, 300 mg/kg s.c., 1 week post dose, individual animals, unit inferred): 1310 nM
- concentration at 4 weeks (male, Indian origin, rhesus monkey, in vivo, 300 mg/kg, Plasma GS-CA1 level, 300 mg/kg s.c., 4 weeks post dose, individual animals, unit inferred): 338 nM
- concentration at 8 weeks (male, Indian origin, rhesus monkey, in vivo, 300 mg/kg, Plasma GS-CA1 level, 300 mg/kg s.c., 8 weeks post dose, individual animals, unit inferred): 198 nM
- concentration at 10 weeks (male, Indian origin, rhesus monkey, in vivo, 300 mg/kg, Plasma GS-CA1 level, 300 mg/kg s.c., 10 weeks post dose, individual animals, unit inferred): 109 nM
- concentration at 14 weeks (male, Indian origin, rhesus monkey, in vivo, 300 mg/kg, Plasma GS-CA1 level, 300 mg/kg s.c., 14 weeks post dose, individual animals, unit inferred): 43.8 nM
- concentration at 7 day (male, Indian origin, rhesus monkey, in vivo, plasma drug level, 100 and 300 mg/kg single s.c., by day 7): 400 to 1100 nM
- AUC(0-inf) [1]: 333 µM·h
- F (based on AUCinf) [1]: 92%
- Tmax [1]: 1.5 days
- half-life [1]: 25 days
- AUC(0-t) (male, Indian origin, rhesus monkey, in vivo, sc, 100 mg/kg, AUC0-24h): 19.3 µM·h
- AUC(0-t) (male, Indian origin, rhesus monkey, in vivo, sc, 100 mg/kg, AUC0-168h): 147 µM·h
- AUC(0-t) (male, Indian origin, rhesus monkey, in vivo, sc, 100 mg/kg, AUC0-336h): 198 µM·h
- AUC(0-t) (male, Indian origin, rhesus monkey, in vivo, sc, 100 mg/kg, AUC0-1008h): 279 µM·h
- AUC(0-t) (male, Indian origin, rhesus monkey, in vivo, sc, 100 mg/kg, AUC0-1344h): 298 µM·h
- AUC(0-t) (male, Indian origin, rhesus monkey, in vivo, sc, 100 mg/kg, AUC0-1680h): 310 µM·h
- AUC(0-inf) [2]: 1120 ± 126 µM·h
- Cmax [2]: 2710 ± 720 nM
- F (based on AUCinf) [2]: 104 ± 12%
- Tmax [2]: 2 ± 1 days
- half-life [2]: 23.2 days
- AUC(0-t) (male, Indian origin, rhesus monkey, in vivo, sc, 300 mg/kg, AUC0-24h): 25.2 ± 10.2 µM·h
- AUC(0-t) (male, Indian origin, rhesus monkey, in vivo, sc, 300 mg/kg, AUC0-336h): 434 ± 114 µM·h
- AUC(0-t) (male, Indian origin, rhesus monkey, in vivo, sc, 300 mg/kg, AUC0-1008h): 819 ± 77 µM·h
- AUC(0-t) (male, Indian origin, rhesus monkey, in vivo, sc, 300 mg/kg, AUC0-1344h): 936 ± 91 µM·h
- AUC(0-t) (male, Indian origin, rhesus monkey, in vivo, sc, 300 mg/kg, AUC0-1680h): 1010 ± 109 µM·h
